Measurements taken from US8216592B2, “Infection model for developing chemotherapeutic agents” (priority 2007, dated 2012).

Tests used:
[1] = system: ETEC strain H10407; assay: C. elegans/ETEC infection system: screen of chemotherapeutic agents against colonization of the nematode gut; format: in vivo, E. coli; conditions: ETEC H10407-infected C. elegans, 24 hours at 26° C.
Description: (§1) Nematodes were infected with prototypical ETEC H10407 or control MG1655 strains on NGM agar. After 24 hours of infection, 30 nematodes were harvested and placed in 1 mL M9 buffer (black bars), or M9 buffer supplemented with 100 μg/mL gentamicin (white bars), 50 μg/mL kanamycin (cross-hatched bars), 7 μg/mL heparin (checkered bars), or 0.01% mannose (speckled bars), and incubated at 26° C. for 24 hours. Values represent the means of three replicate assays, and error bars indicate 1 SD.
(§2) In one embodiment, a C. elegans/ETEC infection system can be used to screen for chemotherapeutic agents able to disrupt colonization of the nematode gut. In another embodiment, a C. elegans/ETEC infection system may be used to test a range of compounds including, for purposes of example only, the bacteriocidal antibiotic gentamicin, bacteriostatic antibiotic kanamycin, heparin, which may disrupt bacterial adherence, and mannose, which inhibits type I fimbria-mediated adherence to host cells. Age-synchronized L4 nematodes were placed on NGM agar inoculated with either strain H10407 or the control MG1655. Twenty-four hours post-infection, 30 nematodes fed each strain were placed in M9 buffer or M9 buffer supplemented with the desired compounds. After an additional 24 hours of incubation at 26° C., nematodes were harvested, washed to remove exterior bacteria, pulverized and plated on selective LB agar.
After 3 days at 26° C., L4 nematodes were removed from feeding using a platinum wire and placed on rifampin-containing NGM agar plates with pre-grown ETEC and control strains that were incubated at 37° C. overnight. Prior to seeding of C. elegans, NGM and CFA agar plates were shifted to 26° C., the temperature where they remained for the duration of the assay. For the standard plate count assay, nematodes were fed on ETEC and control strains for 24 hours. […]

[2] = system: enteropathogenic E. coli (EPEC) strain E2348/69; assay: C. elegans infection system: EPEC bacteria recoverable from the nematode gut after treatment; format: in vivo; conditions: EPEC E2348/69-infected C. elegans; gentamicin; data not shown
Text: With continued reference to FIG. 4, there was no significant difference in the number of recoverable ETEC bacteria after treatment with any of the other compounds tested. […] The present invention therefore also includes a C. elegans small animal infection model for studying EPEC. Accordingly, a C. elegans infection system could be used to screen for potentially therapeutic chemical agents against multiple E. coli pathotypes.

[3] = system: control strain MG1655; assay: C. elegans infection system: control strain bacteria recovered from the nematode gut after treatment; format: in vivo, E. coli; conditions: MG1655-fed C. elegans; 100 μg/mL gentamicin, 50 μg/mL kanamycin, 7 μg/mL heparin or 0.01% mannose in M9 buffer, 24 hours at 26° C.; P<0.001 for all compounds tested; FIG. 4
Description: as §1
as §2, with “agar. […]” for “agar.”

gentamicin
reduction in the number of ETEC bacteria recoverable from the nematode gut (vs M9 buffer), significance ([1]; 100 μg/mL gentamicin, 50 μg/mL kanamycin, 7 μg/mL heparin or 0.01% mannose in M9 buffer, FIG. 4): significant (P=0.004) reduction
size of the reduction in recoverable ETEC bacteria, M9 buffer versus M9 buffer supplemented with gentamicin ([1]; 100 μg/mL gentamicin): approximately one order of magnitude
mean number of bacteria recoverable from the nematode gut after incubation ([1]; M9 buffer supplemented with 100 μg/mL gentamicin, FIG. 4): 1×10^4 CFU per nematode
reduction in the number of EPEC bacteria recoverable from the nematode gut compared to untreated EPEC-infected nematodes [2]: approximately one order of magnitude
reduction in the number of bacteria recovered from the nematode gut, significance [3]: significant reduction

heparin
reduction in the number of bacteria recovered from the nematode gut, significance [3]: significant reduction
